Drawing on patent US11786534B2 (TAIHO PHARMACEUTICAL CO., LTD., priority 2019, dated 2023), this text covers IC50 for eleven molecules.

Some results are limits rather than exact numbers.

Common to all, as to type: biochemical
The target in one experiment is T1, human EGFR (WT) (Homo sapiens, UniProt P00533).
T1 construct: purchased Carna Biosciences Inc., Japan
Put plainly: Inhibitory activity against EGFR (WT) kinase. To be noted: Test Example 1, Table 6; ATP 1.5 μM. As for the experimental part: The compounds of the present invention were measured for their inhibitory activity nainst EGFR (WT) kinase activity.
The materials, measurement procedures and data analysis method used in this test. are substantially the same as those shown in the section “Measurement of inhibitory activity against EGFR (d746-750/T790M/C797S) kinase.” However, among the materials, the kinase protein used was a purified recombinant human EGFR (WT) purchased from Carna Biosciences Inc., Japan. In the measurement procedures, the final concentration of ATP was set to 1.5 μM. Finally, data analysis was conducted to determine the IC50 value (nM) of each compound against EGFR (WT).
In accordance with the same procedures as shown in 5) in Test Example 1, the compounds of the present invention were measured for their inhibitory activity against. EGFR (WT) kinase activity.

The target of a further experiment is T2, human EGFR (L858R/C797S) (Homo sapiens, UniProt P00533, C797S/L858R).
T2 construct: purchased SignalChem
In words: Inhibitory activity against EGFR (L858R/C797S) kinase. The note with it: Test Example 1, Table 5; ATP 4 μM, 90 minutes. The protocol: 4) Measurement of inhibitory activity against EGFR (L858R/C797S) kinase
The compounds of the present invention were measured for their inhibitory activity aeainst EGFR (L858R/C797S) kinase activity.
The materials, measurement procedures and data analysis method used in this test are stibstantially the same as those shown in the section “Measurement of inhibitory activity against EGFR (d746-750/C797S) kinase.” However, among the materials, the kinase protein used was a purified recombinant human EGFR (C797S/L858R) protein purchased from SignalChem. In the measurement procedures, the final concentration of ATP was set to 4 μM, and the incubation time for kinase reaction was set to 90 minutes. Finally, data analysis was conducted determine the IC50 value (nM) of each compound against EGFR (L858R/C797S).
In accordance with the same procedures as shown in 4) in Test Example 1, the compounds of the present invention were measured for their inhibitor activity against. EGFR (L858R/C797S) kinase activity.

Experiment [1] concerns the target T3, human EGFR (d746-750/T790M/C797S) (Homo sapiens, UniProt P00533, C797S/DEL746-750/T790M).
T3 construct: made in house; host or cells: Sf9 insect cells, baculovirus
In words: Inhibitory activity against EGFR (d746-750/T790M/C797S) kinase. To be noted: Test Example 1, Table 2; ATP 6 μM, 25° C., 120 minutes. The protocol: 1) Measurement of inhibitory activity against EGFR (d746-750/T790M/C797S) kinase
The compounds of the above examples and comparative examples were measured for their inhibitory activity against EGFR (d746-750/T790M/C797S) kinase activity. Among the materials required for measurement of this inhibitory activity, the kinase protein (SEQ ID NO: 1) used was prepared as follows: the cytoplasmic domain of human EGFR (d746-750/T790M/C797S) fused at the ammo terminal end with a glutathione-S-transferase (GST) tag was expressed M insect cells (Sf9) by the baculovirus expression system and then purified an a glutathione sepharose column. For use as a substrate peptide, a peptide biotinylated at the N-terminal end (biotin -EEPLYWSFPAKKK) was synthesized by reference to Perkin Elmer LabChip® series reagent FL-Peptide 22.
Procedures for measurement of the inhibitory activity are as follows. First, the compounds of the present invention were each dissolved in dimethyl sulfoxide (DMSO), and their serial dilutions were then prepared with DMSO. Secondly, each compound serial dilution (final concentration of DMSO during kinase reaction: 2.5%) or DMSO (final concentration: 2.5%) was mixed with a solution containing the substrate peptide (final concentration: 250 nM), magnesium chloride (final concentration: 10 mM), manganese chloride (final concentration: 10 mM) and ATP (final concentration: 6 μM) in a kinase reaction buffer (Carna Biosciences Inc., Japan), and the EGFR (d746-750/T790M/C797S) protein was further added thereto, followed by incubation at 25° C. for 120 minutes to cause kinase reaction. To the reaction solution, EDTA was added to give a final concentration of 24 mM to thereby stop the reaction, followed by addition of a phospholylated tyrosine detection solution containing europium-labeled anti-phosphorylated tyrosine antibody PT66 (Perkin Elmer) and SureLight APC-SA (Perkin Elmer). The reaction solution was allowed to stand at room temperature for 2 hours or longer. As a background, DMSO was used instead of each compound solution in .DMSO, and EDIA was added prior to the addition of the EGFR EGFR (d746-750/T790M/C797S) protein, followed by incubation at 25° C. for 120 minutes. The same detection solution was also added to this reaction solution, which was then allowed to stand for 2 hours or longer. Finally, all the test samples were measured with a PHERAstar FS reader (BMG LABTECH) for their fluorescence intensity at two wavelengths of 620 nm and 665 nm upon irradiation with an excitation light of 337 nm wavelength, and the ratio of fluorescence intensities at these two wavelengths was obtained as data for each compound.
Moreover, as control compounds, the above Comparative Example A (Example 3 in WO2013/118817) and Comparative Example B (Example 35 in WO2013/118817) known to have EGFR inhibitory activity were used.
In accordance with the same procedures as shown in 1) in Test Example 1, the compounds of the above examples were measured for their inhibitory activity against EGFR (d746-750/T790M/C797S) kinase activity.

Experiment [2] concerns the target T4, human EGFR (d746-750/C797S) (Homo sapiens, UniProt P00533, C797S/DEL746-750).
T4 construct: purchased SignalChem
In words: Inhibitory activity against EGFR (d746-750/C797S) kinase. The note with it: Test Example 1, Table 4; ATP 14 μM, 60 minutes. The protocol:
3) Measurement of inhibitory activity against EGFR (d746-750/C797S) kinase
The compounds of the present invention were measured for their inhibitory activity against EGFR (d746-750/C797S) kinase activity.
The materials, measurement procedures and data analysis method used in this test are substantially the same as those shown in the section “Measurement of inhibitory activity aiainst EGFR (d746-750/T790M/C797S) kinase.” However, among the materials, the kinase protein used was a purified recombinant human EGFR (d746-750/C797S) protein purchased from SignalChem, while the kinase reaction buffer used was 13.5 mM Tris (pH 7.5) containing 2 mM dithiothreitol and 0.009% Tween-20. In the measurement procedures, the final concentration of ATP was set to 14 μM, the final concentration of maganesium chloride was set to 20 mM, the final concentration of manganese chloride was set to 12.5 mM, the incubation time for kinase reaction was set to 60 minutes, and the final concentration of EDTA used to stop the kinase reaction was set to 40 mM. Finally, data analysis was conducted to determine to IC50 value (nM) of each compound against EGFR (d746-750/C797S).
In accordance with the same procedures as shown in 3) in Test Example 1, the compounds of the present invention were measured for their inhibitory activity against EGFR (d746-750/C797S) kinase activity.

T4 sequence (P00533 with tags, fused parts or gaps DEL746-750/C797S): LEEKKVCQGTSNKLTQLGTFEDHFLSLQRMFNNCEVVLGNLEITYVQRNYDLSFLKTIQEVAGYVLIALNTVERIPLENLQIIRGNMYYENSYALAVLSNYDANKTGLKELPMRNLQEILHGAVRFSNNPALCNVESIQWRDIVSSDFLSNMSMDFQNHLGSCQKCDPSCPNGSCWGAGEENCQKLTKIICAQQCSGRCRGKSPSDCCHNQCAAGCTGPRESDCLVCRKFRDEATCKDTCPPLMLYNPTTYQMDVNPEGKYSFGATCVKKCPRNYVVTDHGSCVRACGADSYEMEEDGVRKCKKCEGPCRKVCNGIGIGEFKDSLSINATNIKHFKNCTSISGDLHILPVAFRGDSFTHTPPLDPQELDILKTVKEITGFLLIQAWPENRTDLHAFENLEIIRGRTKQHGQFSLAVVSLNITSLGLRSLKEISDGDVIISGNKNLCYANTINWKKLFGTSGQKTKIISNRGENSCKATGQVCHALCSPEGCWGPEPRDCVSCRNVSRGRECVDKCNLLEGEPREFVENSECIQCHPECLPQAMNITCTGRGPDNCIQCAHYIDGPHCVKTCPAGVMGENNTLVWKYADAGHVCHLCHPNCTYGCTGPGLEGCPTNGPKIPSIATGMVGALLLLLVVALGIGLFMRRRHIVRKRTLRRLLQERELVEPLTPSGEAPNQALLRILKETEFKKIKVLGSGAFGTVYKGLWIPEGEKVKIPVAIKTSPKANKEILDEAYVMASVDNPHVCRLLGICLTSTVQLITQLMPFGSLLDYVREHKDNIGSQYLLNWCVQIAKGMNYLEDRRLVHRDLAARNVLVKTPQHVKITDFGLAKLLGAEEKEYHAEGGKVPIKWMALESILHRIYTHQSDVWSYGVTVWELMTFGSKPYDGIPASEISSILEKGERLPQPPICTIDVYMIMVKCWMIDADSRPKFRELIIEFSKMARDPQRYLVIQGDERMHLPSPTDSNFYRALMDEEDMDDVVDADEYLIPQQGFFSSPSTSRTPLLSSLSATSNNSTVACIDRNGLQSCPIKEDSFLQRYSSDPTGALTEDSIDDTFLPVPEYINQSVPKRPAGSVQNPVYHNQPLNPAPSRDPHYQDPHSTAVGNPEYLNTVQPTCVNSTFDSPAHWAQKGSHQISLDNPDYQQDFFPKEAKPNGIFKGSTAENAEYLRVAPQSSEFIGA
T2 sequence (P00533 25-1210 C797S/L858R): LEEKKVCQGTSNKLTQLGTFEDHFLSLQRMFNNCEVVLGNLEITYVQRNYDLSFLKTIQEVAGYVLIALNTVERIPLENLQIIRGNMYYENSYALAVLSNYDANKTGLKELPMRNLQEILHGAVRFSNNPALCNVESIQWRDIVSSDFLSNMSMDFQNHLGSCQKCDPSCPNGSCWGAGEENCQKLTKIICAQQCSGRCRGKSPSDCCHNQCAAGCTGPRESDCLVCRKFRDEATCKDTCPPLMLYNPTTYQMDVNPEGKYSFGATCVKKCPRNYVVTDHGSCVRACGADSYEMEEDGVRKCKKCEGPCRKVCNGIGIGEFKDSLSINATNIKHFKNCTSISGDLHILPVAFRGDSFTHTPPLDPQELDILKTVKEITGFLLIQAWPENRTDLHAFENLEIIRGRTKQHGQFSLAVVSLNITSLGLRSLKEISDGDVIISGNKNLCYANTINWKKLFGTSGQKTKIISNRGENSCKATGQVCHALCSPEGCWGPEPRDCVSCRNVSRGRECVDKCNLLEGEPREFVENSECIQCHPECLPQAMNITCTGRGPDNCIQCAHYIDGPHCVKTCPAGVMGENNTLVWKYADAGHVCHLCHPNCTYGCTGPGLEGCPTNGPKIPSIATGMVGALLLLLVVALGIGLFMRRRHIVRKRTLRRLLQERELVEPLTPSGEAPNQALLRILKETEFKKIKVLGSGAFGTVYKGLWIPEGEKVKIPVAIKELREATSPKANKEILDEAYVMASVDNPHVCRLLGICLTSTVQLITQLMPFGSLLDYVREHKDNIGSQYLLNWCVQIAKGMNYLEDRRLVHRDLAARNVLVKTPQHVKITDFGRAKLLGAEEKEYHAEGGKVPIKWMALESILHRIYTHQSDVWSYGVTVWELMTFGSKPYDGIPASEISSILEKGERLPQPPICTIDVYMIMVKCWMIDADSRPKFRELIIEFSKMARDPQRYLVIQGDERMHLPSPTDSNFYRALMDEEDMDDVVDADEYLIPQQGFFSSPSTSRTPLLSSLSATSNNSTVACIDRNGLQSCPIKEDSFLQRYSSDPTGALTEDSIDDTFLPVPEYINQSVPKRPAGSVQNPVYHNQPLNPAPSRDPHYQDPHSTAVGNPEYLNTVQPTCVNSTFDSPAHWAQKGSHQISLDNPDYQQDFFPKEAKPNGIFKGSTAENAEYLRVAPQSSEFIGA
T3 sequence (P00533 with tags, fused parts or gaps DEL746-750/T790M/C797S): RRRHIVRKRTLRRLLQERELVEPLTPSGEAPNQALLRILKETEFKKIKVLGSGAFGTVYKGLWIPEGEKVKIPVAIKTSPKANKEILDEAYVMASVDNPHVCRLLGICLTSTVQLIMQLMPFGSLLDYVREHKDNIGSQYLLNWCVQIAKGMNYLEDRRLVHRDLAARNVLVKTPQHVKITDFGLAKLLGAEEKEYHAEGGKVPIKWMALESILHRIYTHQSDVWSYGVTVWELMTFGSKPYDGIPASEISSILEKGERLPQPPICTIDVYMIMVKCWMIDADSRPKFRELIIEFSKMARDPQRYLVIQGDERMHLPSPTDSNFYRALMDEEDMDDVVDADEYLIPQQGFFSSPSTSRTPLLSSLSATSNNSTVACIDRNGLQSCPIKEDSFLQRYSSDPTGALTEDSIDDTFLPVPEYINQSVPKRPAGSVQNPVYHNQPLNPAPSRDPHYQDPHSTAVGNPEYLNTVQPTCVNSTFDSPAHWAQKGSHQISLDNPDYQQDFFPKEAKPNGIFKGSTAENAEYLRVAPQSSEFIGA
T1 sequence (P00533 25-1210): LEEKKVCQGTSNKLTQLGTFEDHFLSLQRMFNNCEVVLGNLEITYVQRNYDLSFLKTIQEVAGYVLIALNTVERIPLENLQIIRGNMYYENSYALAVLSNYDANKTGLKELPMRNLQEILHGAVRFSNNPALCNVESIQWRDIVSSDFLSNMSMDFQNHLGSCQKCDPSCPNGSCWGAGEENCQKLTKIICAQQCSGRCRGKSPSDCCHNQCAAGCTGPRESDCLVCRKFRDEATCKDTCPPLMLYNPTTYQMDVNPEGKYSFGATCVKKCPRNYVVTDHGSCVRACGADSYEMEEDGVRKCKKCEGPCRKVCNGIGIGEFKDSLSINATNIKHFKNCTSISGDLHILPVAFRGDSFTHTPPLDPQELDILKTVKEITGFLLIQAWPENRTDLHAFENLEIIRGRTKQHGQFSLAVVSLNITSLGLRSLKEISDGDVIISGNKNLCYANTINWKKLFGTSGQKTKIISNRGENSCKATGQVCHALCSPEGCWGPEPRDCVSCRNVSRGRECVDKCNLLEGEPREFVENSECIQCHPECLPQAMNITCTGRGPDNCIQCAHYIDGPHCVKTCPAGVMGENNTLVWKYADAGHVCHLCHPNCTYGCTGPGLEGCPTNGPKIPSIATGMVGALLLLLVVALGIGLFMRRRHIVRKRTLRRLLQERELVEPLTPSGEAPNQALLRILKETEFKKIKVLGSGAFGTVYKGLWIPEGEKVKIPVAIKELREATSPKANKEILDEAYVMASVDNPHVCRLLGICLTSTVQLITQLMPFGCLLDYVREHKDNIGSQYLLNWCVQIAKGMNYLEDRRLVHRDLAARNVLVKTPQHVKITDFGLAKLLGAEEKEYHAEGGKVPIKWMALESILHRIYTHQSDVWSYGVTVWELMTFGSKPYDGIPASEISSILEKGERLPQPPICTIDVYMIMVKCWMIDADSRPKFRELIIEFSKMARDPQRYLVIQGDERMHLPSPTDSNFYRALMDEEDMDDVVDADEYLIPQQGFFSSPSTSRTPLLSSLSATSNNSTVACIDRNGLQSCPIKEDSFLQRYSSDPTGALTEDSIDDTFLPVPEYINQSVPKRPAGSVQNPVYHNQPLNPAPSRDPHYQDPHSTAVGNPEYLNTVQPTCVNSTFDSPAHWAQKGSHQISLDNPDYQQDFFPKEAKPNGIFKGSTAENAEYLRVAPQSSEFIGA

On to `C#Cc1c(-c2cnc3ccccc3c2)c2c(N)ncnc2n1C12CCC(N3CCN(C)C(=O)C3)(CC1)C2` [Example 5, 4-(4-(4-Amino-6-ethynyl-5-(quinolin-3-yl)-7H-pyrrolo[2,3-d]pyrimidin-7-yl)bicyclo-[2.2.1]heptan-1-yl)-1-methylpiperazin-2-one], for which the IC50 (as a rule, the concentration needed to halve the response being measured) against human EGFR (WT) is 4 nM; against human EGFR (L858R/C797S), 2.8 nM; in experiment [1], 0.32 nM; in experiment [2], 1.2 nM.

Regarding `C#Cc1c(-c2cnc3ccccc3c2)c2c(N)ncnc2n1C12CCC(NC(=O)CN(C)C)(CC1)CC2` [Example 55], the IC50 against human EGFR (WT) is 1.2 nM; against human EGFR (L858R/C797S) it was 1.2 nM; in experiment [1], < 0.3 nM; in experiment [2] it was 0.86 nM.

Turning to `C#Cc1c(-c2cnc3ccccc3c2)c2c(N)ncnc2n1C12CCC(NC(=O)n3cccn3)(CC1)C2` [Example 21, N-(4-(4-Amino-6-ethynyl-5-(quinolin-3-yl)-7H-pyrrolo[2,3-d]pyrimidin-7-yl)bicyclo-[2.2.1]heptan-1-yl)-1H-pyrazole-1-carboxamide], the IC50 was 1.7 nM on human EGFR (WT), 0.98 nM on human EGFR (L858R/C797S), < 0.3 nM in experiment [1] and 0.78 nM in experiment [2].

Turning to `C#Cc1c(-c2cnc3ccccc3c2)c2c(N)ncnc2n1C12CCC(CNCCF)(CC1)C2` [Example 54, 6-Ethynyl-7-(4-(((2-fluoroethyl)amino)methyl)bicyclo[2.2.1]heptan-1-yl)-5-(quinolin-3-yl)-7H-pyrrolo[2,3-d]pyrimidine-4-amine], the IC50 was 6.3 nM against human EGFR (WT), 2.8 nM at human EGFR (L858R/C797S), < 0.3 nM in experiment [1] and 1.5 nM in experiment [2].

With `CC#Cc1c(-c2cnc3ccccc3c2)c2c(N)ncnc2n1C12CCC(NC(=O)c3ccnn3C)(CC1)C2` [Example 33, N-(4-(4-Amino-6-(propyn-1-yl)-5-(quinolin-3-yl)-7H-pyrrolo[2,3-d]pyrimidin-7-yl) -bicyclo[2.2.1]heptan-1-yl)-1-methyl-1H-pyrazole-5-carboxamide], the IC50 against human EGFR (WT) is 1.9 nM; against human EGFR (L858R/C797S), 2.3 nM; in experiment [1], < 0.3 nM; in experiment [2], 1.9 nM.

Take `C#Cc1c(-c2cnc3ccccc3c2)c2c(N)ncnc2n1C12CCC(N(C)C(=O)c3cnc(C)cn3)(CC1)C2` [Example 57]: the half-inhibitory concentration (IC50) is 5.9 nM at human EGFR (WT), 4.4 nM against human EGFR (L858R/C797S), < 0.3 nM in experiment [1] and 2.5 nM in experiment [2].

Turning to `C#Cc1c(-c2cnc3ccccc3c2)c2c(N)ncnc2n1C12CCC(NC(=S)N3CC4(CN(C)C4)C3)(CC1)CC2` [Example 56], the IC50 is 0.94 nM against human EGFR (WT), 0.9 nM against human EGFR (L858R/C797S), < 0.3 nM in experiment [1] and 0.84 nM in experiment [2].

Take `C#Cc1c(-c2cnc3ccccc3c2)c2c(N)ncnc2n1C12CCC(NCc3cccnc3)(CC1)CC2` [Example 8, 6-Ethynyl-7-(4-((pyridin-3-ylmethyl)amino)bicyclo[2.2.2]octan-1-yl)-5-(quinolin-3-yl) -7H-pyrrolo[2,3-d]pyrimidine-4-amine]: the 50% inhibitory concentration (IC50) against human EGFR (WT) is 3.2 nM; at human EGFR (L858R/C797S), 1.4 nM; in experiment [1], < 0.3 nM; in experiment [2], 0.73 nM.

On to `C#Cc1c(-c2cnc3ccccc3c2)c2c(N)ncnc2n1C12CCC(NC(=O)c3cnc(N(C)C)cn3)(CC1)C2` [Example 32, N-(4-(4-Amino-6-ethynyl-5-(quinolin-3-yl)-7H-pyrrolo[2,3-d]pyrimidin-7-yl)bicyclo-[2.2.1]heptan-1-yl)-5-(dimethylamino)pyrazine-2-carboxamide], for which the IC50 is 1 nM against human EGFR (WT), 0.78 nM against human EGFR (L858R/C797S), < 0.3 nM in experiment [1] and 0.59 nM in experiment [2].

In the case of `C#Cc1c(-c2cnc3ccccc3c2)c2c(N)ncnc2n1C12CCC(CN(C)C)(CC1)C2` [Example 40, 7-(4-((Dimethylamino)methyl)bicyclo[2.2.1]heptan-1-yl)-6-ethynyl-5-(quinolin-3-yl) -7H-pyrrolo[2,3-d]pyrimidine-4-amine], the 50% inhibitory concentration (IC50) against human EGFR (WT) is 5 nM; against human EGFR (L858R/C797S) it was 4 nM; in experiment [1] it was < 0.3 nM; in experiment [2] it was 2.6 nM.

Take `C#Cc1c(-c2cnc3ccccc3c2)c2c(N)ncnc2n1C12CCC(O)(CC1)CC2` [Example 7, 4-(4-Amino-6-ethynyl-5-(quinoiln-3-yl)-7H-pyrrolo[2,3-d]pyrimidin-7-yl)bicyclo-[2.2.2]octan-1-ol]: the half-inhibitory concentration (IC50) at human EGFR (WT) came out at 2.5 nM; against human EGFR (L858R/C797S) it was 2.9 nM; in experiment [1], 0.8 nM; in experiment [2], 2.3 nM.
